In brackets after ≈: the same amount, converted by molar mass. Structures can show the parent of a compound that is named as a salt. Where two headings read alike, the source gives them in different places.
Tests used:
prion model [1] = assay: organism not typed; type: cell-based
prion model [2] = type: biochemical
prion model [3] = type: cell-based; conditions: ethylene oxide 600 mg/L, 18 mins, initial count 8.5

Row | Structure (SMILES) | concentration showing at least some effect on growth of the prion model (MIC test) (prion model [1]) | activity at inhibiting the growth of the prion model in culture media (prion model [1]) | further results
1 | Cl [HCl] | ~0.1 N | – | –
2 | [Mn+2] [Manganese] | ~100 mg/L | measurable activity | –
3 | [Na+].[OH-] [NaOH, sodium hydroxide] | ~0.01 N | effective | –
4 | CC(=O)OO [Peracetic acid] | – | – | MIC (prion model [1]; read-out: concentration showing at least some effect on growth of the prion model (MIC test)): ~600 µg/mL (≈ 7.89 mM); breakdown of the protein (prion model [2]): break down the protein to a form which is inactive
5 | C1CO1 [ethylene oxide] | – | – | Prion count in Logs (prion model [3]; 54° C., 40% RH): 4.7 Logs; Prion count in Logs (prion model [3]; 70° C., 100% RH): 5.0 Logs
6 | NC[C@@H]1O[C@H](O[C@H]2[C@@H](O)[C@H](O[C@@H]3[C@@H](O)[C@H](N)C[C@H](N)[C@H]3O[C@H]3O[C@H](CN)[C@@H](O)[C@H](O)[C@H]3N)O[C@@H]2CO)[C@H](N)[C@@H](O)[C@@H]1O.O=S(=O)(O)O [neomycin sulphate] | ~125 mg/L | measurable activity | –
7 | O=[N+]([O-])[O-].[Ag+] [silver nitrate] | ~30 mg/L | measurable activity | –

— US7129080B2 (priority 2001, dated 2006)
